Laboratory results: patent publication US5811391A, “Cyclic CS-1 peptidomimetics, compositions and methods of using same” (Cytel Corporation, priority 1995, dated 1998)
“And” between values parts separate entries of the source, which are not always exact repeats. Equal values may be shown once. Positions of bridges follow the written chain, without caps; N, C: chain ends. Non-standard residues stand in square brackets, D forms with d. Residues, ends and D or L forms follow the SMILES beside them. No end group written: not given here. *: point of attachment. PhAc = O=C(Cc1ccccc1)*

Columns and labels:
VLA-4/sVCAM-1 = target: T1, VLA-4/sVCAM-1 (Homo sapiens, UniProt P05556+P13612); assay: In vitro binding assay: Jurkat cells to solid phase-bound sVCAM-1; type: cell-based; details: for relative potencies for inhibiting Jurkat cell binding to solid phase-bound sVCAM-1: compared against each other, XLDFp = 1
T1 construct: host or cells: Jurkat cells carry the VLA-4; The sVCAM-1 partner was made in house in transfected human embryonal kidney 293 cells (ATCC CRL 1573)
Experimental: Assays conducted using sVCAM-1 as solid phase-bound antigen were carried out substantially identically to those using CS-1. The sVCAM-1 polypeptide used had the same amino acid residue sequence as the materials described in Lobb et al., Biochem. Biophys. Res. Commun., 178:1498-1504 (1991) and Cybulsky et al., Proc. Natl. Acad. Sci., USA, 88:7859-7863 (1991). Human embryonal kidney line 293 (ATCC CRL 1573) cells were co-transfected with a plasmid (pCDNAI;invitrogen) containing the sVCAM-1 DNA sequence and plasmid pSV2-neo [Southern et al., J. Mol. Appl. Gen., 1:327-341 ([…])]. Cells were selected in DMEM, 10 percent fetal bovine serum and 600 μg/ml Geneticin. sVCAM-1 was purified from supernatants using a column containing monoclonal antibody P3H12 (anti-human VCAM-1) coupled to Sepharose 4B. The sVCAM-1 was eluted using 0.1M glycine at pH 2.5 following 50 column washes with PBS, pH 7.2. The eluate was immediately neutralized and dialyzed against PBS for use.

VLA-4 [1] = target: T2, VLA-4 (Homo sapiens, UniProt P05556+P13612); assay: In vitro binding assay: 51Cr-labeled Jurkat cells to solid phase-bound CS-1 peptide (SEQ ID NO:5); type: cell-based; parameters: inflammatory cells that contain the VLA-4 receptor [Jurkat cells; host or cells: Jurkat cells (human T lymphoblastic line); details: for CS-1 inhibition potencies relative to each other: ratio XLDFZ:XLDFp:SEQ ID NO:7, XLDFp = 1; for Potency in inhibiting Jurkat cell binding to CS-1 relative to standard 10-mer of SEQ ID NO:6: times/fold more potent than SEQ ID NO:6; for Relative Potency: Jurkat cells, CS-1
Experimental: Binding inhibition is measured here as a concentration of peptide that inhibits one-half the binding between a standard number of Jurkat cells and a standard amount of CS-1 peptide bound to the surface of a microtiter plate well. Those concentrations are conveniently expressed as IC50 values, smaller numbers indicating a lower concentration required to inhibit 50 percent binding and therefore greater potency. Further specifics of this assay are provided hereinafter.
Jurkat cells (ATCC TIB 152), a human T lymphoblastic line, labeled with ^51 chromium were used to assay in vitro binding inhibition provided by various peptides discussed herein.
The plates were prepared as follows: The 25-mer CS-1 peptide (SEQ ID NO:5) dissolved at 0.5-1 μg/ml in a buffer of 0.1M NaHCO3 at pH 9.5 that also contained 10 μg/ml of bovine serum albumin (BSA) or a conjugate of the CS-1 peptide linked to ovalbumin (CS-1-OVA) dissolved at 1-2.5 μg/ml in the same buffer was used as the substrate. Each well of the microtiter plates was coated with 50 μl of substrate or buffer alone for controls. The wells were permitted to dry out completely and were then rinsed twice with PBS at pH 7.4. Non-specific binding sites of each well were then blocked using 200 μl per well of RPMI/1 percent BSA for two hours at room temperature. Both solid phase-affixed substrates provided similar results.
Jurkat cells (3-5×10^6 cells) were placed into a 15 ml FALCON™ round-bottom tube with a cap. The tube was centrifuged, and the extra medium was then removed.
Two hundred microliters of a ^51 Cr labeling solution were added to the centrifuged cells and maintained in contact with the cells for 90-120 minutes in a warm room. This procedure typically provides about 50,000-100,000 cpm/well with about 80-100 percent cell viability. Longer contact times provide a greater amount of labeling but lower cell viability.
The labeled cells were washed with (i) complete medium, (ii) 1mM EDTA/PBS and then (iii) RPM1/1 percent BSA free of serum components. The cells were centrifuged after each washing. The cells were finally resuspended in serum-free RPMI/1 percent BSA at a concentration of 1×10^6 viable cells/ml, which provides a concentration that is diluted by one-half in the assay.
Cyclic inhibitor peptides were prepared as stock solutions at 20 mg/ml in DMSO in 1.5 ml cryogenic screwcap vials, and were stored at -70° C. Using FLOW™ round-bottom or V-bottom microtiter plates, the inhibitor peptides were prepared at twice the assay concentration in RPMI/1 percent BSA at 60 μl/well.
Four initial dilutions were typically used.
The ^51 Cr-labeled cells (1×10^6 cells at 60 μl/well) were then admixed with the diluted cyclic peptide solutions. The admixtures were maintained at room temperature (about 22° C.) for 30 minutes.
One hundred microliters of each inhibitor peptide/cell admixture were transferred to the substrate-coated wells. This was done in triplicate for each dilution. The resulting plates were incubated for 30 minutes at 37° C. and then washed gently three times with RPMI/1 percent BSA at 200 μl/well. Binding was observed microscopically, particularly after the second wash.
The bound cells were then lysed by the addition of a 0.5 percent solution of sodium dodecylsulfate in water at 100 μl/well. The resulting solutions were then processed for counting and calculation of IC50 values following usual procedures. Appropriate positive and negative controls were used with each plate so that the results of separate assays could be normalized and compared.
The potency data of Table 1 and Table 2 are so normalized. The absolute IC50 value for the peptide of SEQ ID NO:7 is 0.3 μM.

[2] = Retention of potency in PBS containing 10 percent mouse or human serum; type: in vitro ADME; details: PBS at 7.2-7.4 containing 10 percent mouse or human serum
VLA-4 [3] = target: T2, VLA-4; details: cited from earlier work
[4] = Table 1, normalized IC50 potency relative to standard peptide SEQ ID NO:6 (=1)
[5] = Table 2, normalized IC50 potency relative to standard peptide SEQ ID NO:6

T2 sequence (P13612 34-1032): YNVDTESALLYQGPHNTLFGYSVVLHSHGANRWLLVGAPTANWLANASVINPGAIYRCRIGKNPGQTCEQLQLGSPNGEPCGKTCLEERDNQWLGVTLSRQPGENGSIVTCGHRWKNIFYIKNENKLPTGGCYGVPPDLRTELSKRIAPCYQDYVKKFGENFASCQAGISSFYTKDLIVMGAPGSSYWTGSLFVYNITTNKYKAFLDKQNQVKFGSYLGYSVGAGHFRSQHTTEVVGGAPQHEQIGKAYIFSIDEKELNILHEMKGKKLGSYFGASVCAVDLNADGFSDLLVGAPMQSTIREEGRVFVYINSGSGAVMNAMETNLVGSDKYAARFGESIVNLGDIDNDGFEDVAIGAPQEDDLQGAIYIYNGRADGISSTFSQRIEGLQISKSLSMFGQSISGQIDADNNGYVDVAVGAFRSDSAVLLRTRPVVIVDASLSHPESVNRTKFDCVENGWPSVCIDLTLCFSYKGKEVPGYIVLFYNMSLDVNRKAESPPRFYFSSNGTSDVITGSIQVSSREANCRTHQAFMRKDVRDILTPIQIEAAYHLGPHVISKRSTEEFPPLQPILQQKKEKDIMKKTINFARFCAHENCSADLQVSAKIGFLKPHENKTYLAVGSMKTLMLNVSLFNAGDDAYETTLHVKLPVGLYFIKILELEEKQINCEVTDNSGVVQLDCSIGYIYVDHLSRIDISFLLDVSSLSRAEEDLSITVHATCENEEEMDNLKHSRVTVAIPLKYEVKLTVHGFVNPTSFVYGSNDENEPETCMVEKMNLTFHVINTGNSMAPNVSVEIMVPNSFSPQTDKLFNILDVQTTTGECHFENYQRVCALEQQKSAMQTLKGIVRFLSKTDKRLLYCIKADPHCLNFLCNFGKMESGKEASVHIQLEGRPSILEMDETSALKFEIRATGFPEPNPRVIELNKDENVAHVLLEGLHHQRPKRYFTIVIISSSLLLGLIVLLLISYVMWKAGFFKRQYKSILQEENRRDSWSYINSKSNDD
T2 sequence (P05556 21-798): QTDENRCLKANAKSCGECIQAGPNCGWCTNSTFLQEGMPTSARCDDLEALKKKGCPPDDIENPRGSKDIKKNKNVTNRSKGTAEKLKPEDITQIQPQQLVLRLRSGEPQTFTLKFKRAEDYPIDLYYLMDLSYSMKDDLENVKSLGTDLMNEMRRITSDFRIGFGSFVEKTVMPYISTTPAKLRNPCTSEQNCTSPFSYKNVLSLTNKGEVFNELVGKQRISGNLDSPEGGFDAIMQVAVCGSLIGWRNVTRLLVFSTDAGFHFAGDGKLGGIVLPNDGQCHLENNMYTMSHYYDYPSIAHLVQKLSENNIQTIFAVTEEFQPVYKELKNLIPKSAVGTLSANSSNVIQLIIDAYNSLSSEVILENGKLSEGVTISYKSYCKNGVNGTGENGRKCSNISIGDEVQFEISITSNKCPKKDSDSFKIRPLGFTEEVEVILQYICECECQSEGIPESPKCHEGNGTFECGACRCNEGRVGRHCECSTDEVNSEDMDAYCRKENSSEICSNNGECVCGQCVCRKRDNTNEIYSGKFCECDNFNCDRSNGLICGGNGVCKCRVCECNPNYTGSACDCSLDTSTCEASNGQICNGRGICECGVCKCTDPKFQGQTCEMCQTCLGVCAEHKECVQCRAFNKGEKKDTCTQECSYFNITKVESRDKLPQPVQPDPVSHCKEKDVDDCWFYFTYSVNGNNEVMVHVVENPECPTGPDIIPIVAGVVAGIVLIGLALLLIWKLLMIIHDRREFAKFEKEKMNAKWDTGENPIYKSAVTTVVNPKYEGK
T1 sequence (P13612 34-1032): as the sequence (P13612 34-1032) above
T1 sequence (P05556 21-798): as the sequence (P05556 21-798) above

CC(C)C[C@H](NC(=O)Cc1ccccc1)C(=O)N[C@@H](CC(=O)O)C(=O)N[C@@H](Cc1ccccc1)C(=O)N1CCC[C@@H]1C(N)=O [XLDFp, .phi.Ac-LeuAspPhe-D-Pro-NH2, reference compound] (PhAc-LDF[dP]-NH2)
relative potencies for inhibiting Jurkat cell binding to solid phase-bound sVCAM-1 (VLA-4/sVCAM-1): ~1 | CS-1 inhibition potencies relative to each other (VLA-4 [1]): ~1 | Potency in inhibiting Jurkat cell binding to CS-1 relative to standard 10-mer of SEQ ID NO:6 (VLA-4 [1]): ~313

NC(=O)[C@@H]1CSSC[C@H](NC(=O)Cc2ccccc2)C(=O)N[C@@H](CC(=O)O)C(=O)N[C@@H](Cc2ccccc2)C(=O)N1 [SEQ ID NO:7, .phi.AcCDFC-NH2] (PhAc-CDFC-NH2; disulfide 1-4)
loss of potency in serum-containing buffer [2]: no loss of potency after 24 hours | potency relative to the best linear peptide (XLDFZ) as inhibitor of Jurkat cell binding to sVCAM-1 (VLA-4/sVCAM-1): about 3 times | relative potencies for inhibiting Jurkat cell binding to solid phase-bound sVCAM-1 (VLA-4/sVCAM-1): ~3.8 | potency relative to the best linear peptide (XLDFZ) for inhibiting Jurkat cell binding to CS-1 (VLA-4 [1]): about two-thirds the potency | Relative Potency (VLA-4 [1]; [4]): 526 | CS-1 inhibition potencies relative to each other (VLA-4 [1]): ~1.8 | Potency in inhibiting Jurkat cell binding to CS-1 relative to standard 10-mer of SEQ ID NO:6 (VLA-4 [1]): 500-600 and ~563

NC(=O)[C@@H]1CSSC[C@H](NC(=O)[C@@H](N)Cc2ccccc2)C(=O)N[C@@H](CC(=O)O)C(=O)N[C@@H](Cc2ccccc2)C(=O)N1 [drawing 39] (H-FCDFC-NH2; disulfide 2-5)
Relative Potency (VLA-4 [1]; [5]): 2.52

CC(C)C[C@@H]1NC(=O)[C@H](Cc2ccccc2)NC(=O)[C@H](CCC(=O)O)NC(=O)[C@@H]2CCCN2C(=O)[C@@H](N)CSSC[C@@H](C(N)=O)NC(=O)[C@H](CO)NC(=O)[C@@H]2CCCN2C(=O)[C@H](Cc2ccccc2)NC(=O)[C@H](CC(=O)O)NC1=O [SEQ ID NO:19, CPEFLDFPSC-NH2] (H-CPEFLDFPSC-NH2; disulfide 1-10)
Relative Potency (VLA-4 [1]; [4]): 6

CC(=O)N[C@@H](Cc1ccccc1)C(=O)N[C@H]1CSSC[C@@H](C(N)=O)NC(=O)[C@H](Cc2ccccc2)NC(=O)[C@H](CC(=O)O)NC1=O [drawing 21] (Ac-FCDFC-NH2; disulfide 2-5)
Relative Potency (VLA-4 [1]; [5]): 52.6

Leu-Asp-Val [LDV]
affinity of VLA-4 compared with native CS-1 25-mer (VLA-4 [3]): at least two orders of magnitude lower affinity

CC(C)C[C@@H]1NC(=O)[C@H](Cc2ccccc2)NC(=O)[C@H](CCC(=O)O)NC(=O)[C@@H](N)CSSC[C@@H](C(N)=O)NC(=O)[C@@H]2CCCN2C(=O)[C@H](Cc2ccccc2)NC(=O)[C@H](CC(=O)O)NC1=O [SEQ ID NO:20, CEFLDFPC-NH2] (H-CEFLDFPC-NH2; disulfide 1-8)
Relative Potency (VLA-4 [1]; [4]): 19

CC(=O)N[C@@H](Cc1ccccc1)C(=O)N[C@@H](CS)C(=O)N[C@@H](CC(=O)O)C(=O)N[C@@H](Cc1ccccc1)C(=O)N[C@@H](CS)C(N)=O [SEQ ID NO:18, AcFCDFC-NH2] (Ac-FCDFC-NH2)
Relative Potency (VLA-4 [1]; [4]): 41

CC(C)C[C@@H]1NC(=O)[C@H](Cc2ccccc2)NC(=O)[C@H](CCC(=O)O)NC(=O)[C@@H]2CCCN2C(=O)CNC(=O)[C@@H](N)CSSC[C@@H](C(N)=O)NC(=O)[C@@H]2CCCN2C(=O)[C@H](Cc2ccccc2)NC(=O)[C@H](CC(=O)O)NC1=O (H-CGPEFLDFPC-NH2; disulfide 1-10)
Relative Potency (VLA-4 [1]; [5]): 6.26

CC(C)C[C@@H]1NC(=O)[C@H](Cc2ccccc2)NC(=O)[C@@H](N)CSSC[C@@H](C(N)=O)NC(=O)[C@H]([C@@H](C)O)NC(=O)[C@H](CO)NC(=O)[C@@H]2CCCN2C(=O)[C@H](Cc2ccccc2)NC(=O)[C@H](CC(=O)O)NC1=O [SEQ ID NO:15, CFLDFPSTC-NH2] (H-CFLDFPSTC-NH2; disulfide 1-9)
Relative Potency (VLA-4 [1]; [4]): 81

CC(C)C[C@@H]1NC(=O)[C@H](Cc2ccccc2)NC(=O)[C@@H](N)CSSC[C@@H](C(N)=O)NC(=O)[C@H](CO)NC(=O)[C@@H]2CCCN2C(=O)[C@H](Cc2ccccc2)NC(=O)[C@H](CC(=O)O)NC1=O [drawing 12] (H-CFLDFPSC-NH2; disulfide 1-8)
Relative Potency (VLA-4 [1]; [5]): 122

CC(=O)N[C@@H](CC(C)C)C(=O)N[C@@H](CC(=O)O)C(=O)N[C@@H](Cc1ccccc1)C(N)=O [AcLDF-NH2] (Ac-Leu-Asp-Phe-NH2)
Relative Potency (VLA-4 [1]; [4]): < 1

ILDFP-NH2 [SEQ ID NO:27, ILDFP-NH2]
Relative Potency (VLA-4 [1]; [4]): 2

CC(C)C[C@@H]1NC(=O)[C@H](Cc2ccccc2)NC(=O)[C@H](CCC(=O)O)NC(=O)[C@@H]2CCCN2C(=O)[C@@H](N)CSSC[C@@H](C(N)=O)NC(=O)[C@@H]2CCCN2C(=O)[C@H](Cc2ccccc2)NC(=O)[C@H](CC(=O)O)NC1=O [SEQ ID NO:16, CPEFLDFPC-NH2] (H-CPEFLDFPC-NH2; disulfide 1-9)
Relative Potency (VLA-4 [1]; [4]): 56

CC(=O)N[C@H]1CSSC[C@@H](C(N)=O)NC(=O)[C@@H]2CCCN2C(=O)[C@H](Cc2ccccc2)NC(=O)[C@H](CC(=O)O)NC(=O)[C@H](CC(C)C)NC(=O)[C@H](Cc2ccccc2)NC1=O [SEQ ID NO:11, AcCFLDFPC-NH2] (Ac-CFLDFPC-NH2; disulfide 1-7)
Relative Potency (VLA-4 [1]; [4]): 134

ILDVPILDVP-NH2 [SEQ ID NO:26, ILDVPILDVP-NH2]
Relative Potency (VLA-4 [1]; [4]): 2

CC(=O)N[C@@H](CC(C)C)C(=O)N[C@@H](CC(=O)O)C(=O)N[C@H](C(N)=O)C(C)C [AcLDV-NH2, reference compound] (Ac-Leu-Asp-Val-NH2)
Relative Potency (VLA-4 [1]; [4]): < 1 | Potency in inhibiting Jurkat cell binding to CS-1 relative to standard 10-mer of SEQ ID NO:6 (VLA-4 [1]): about 1

NC(=O)[C@@H]1CSSC[C@H](NC(=O)[C@@H](N)Cc2ccccc2)C(=O)N[C@@H](CC(=O)O)C(=O)N[C@@H](Cc2ccccc2)C(=O)N2CCC[C@H]2C(=O)N1 [drawing 11] (H-FCDFPC-NH2; disulfide 2-6)
Relative Potency (VLA-4 [1]; [5]): 131

NC(=O)[C@@H]1CSSC[C@H](NC(=O)[C@@H](N)Cc2ccccc2)C(=O)N[C@@H](CC(=O)O)C(=O)N[C@@H](Cc2ccccc2)C(=O)N2CCC[C@H]2C(=O)N1 [SEQ ID NO:12, FCDFPC-NH2] (H-FCDFPC-NH2; disulfide 2-6)
Relative Potency (VLA-4 [1]; [4]): 131

CC(C)C[C@@H]1NC(=O)[C@H](Cc2ccccc2)NC(=O)[C@H](CCC(=O)O)NC(=O)[C@@H]2CCCN2C(=O)[C@@H](N)CSSC[C@@H](C(N)=O)NC(=O)[C@@H]2CCCN2C(=O)[C@H](Cc2ccccc2)NC(=O)[C@H](CC(=O)O)NC1=O [drawing 23] (H-CPEFLDFPC-NH2; disulfide 1-9)
Relative Potency (VLA-4 [1]; [5]): 31.3
